From PubChem BioAssay (NCI)
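GI50: concentration for 50% inhibition of growth. TGI marks complete inhibition of growth.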

Tests used:
Experiment in all cases: growth of human tumour cells (NCI), 384-well format
ACHN renal = test system: ACHN renal
CCRF-CEM leukemia = test system: CCRF-CEM leukemia
SR leukemia = test system: SR leukemia
SK-OV-3 ovarian = test system: SK-OV-3 ovarian
UACC-257 melanoma = test system: UACC-257 melanoma
MDA-MB-231 breast = test system: MDA-MB-231 breast
SN12C renal = test system: SN12C renal
SK-MEL-5 melanoma = test system: SK-MEL-5 melanoma
T-47D breast = test system: T-47D breast
K-562 leukemia = test system: K-562 leukemia
SW-620 colon = test system: SW-620 colon
OVCAR-5 ovarian = test system: OVCAR-5 ovarian
U251 glioblastoma = test system: U251 glioblastoma
OVCAR-3 ovarian = test system: OVCAR-3 ovarian
HCT-116 colon = test system: HCT-116 colon
NCI-H322M lung = test system: NCI-H322M lung
SF-268 CNS = test system: SF-268 CNS
COLO 205 colon = test system: COLO 205 colon
UO-31 renal = test system: UO-31 renal
LOX IMVI melanoma = test system: LOX IMVI melanoma
MCF7 breast = test system: MCF7 breast
HL-60(TB) leukemia = test system: HL-60(TB) leukemia
HCC-2998 colon = test system: HCC-2998 colon
SNB-19 CNS = test system: SNB-19 CNS
HT29 colon = test system: HT29 colon
A498 renal = test system: A498 renal
PC-3 prostate = test system: PC-3 prostate
MDA-MB-468 breast = test system: MDA-MB-468 breast
RPMI-8226 leukemia = test system: RPMI-8226 leukemia

COc1ccccc1-c1nccc(COc2ccccc2C[C@@H](Oc2ncnc3sc(-c4ccc(F)cc4)c(-c4ccc(OCCN5CCN(C)CC5)c(Cl)c4C)c23)C(=O)O)n1
GI50 (ACHN renal): 4.57 µM | TGI (ACHN renal): 14.8 µM | GI50 (CCRF-CEM leukemia): 0.0296 µM | TGI (CCRF-CEM leukemia): 0.801 µM | GI50 (SR leukemia): < 0.01 µM | TGI (SR leukemia): < 0.01 µM | GI50 (SK-OV-3 ovarian): 2.95 µM | TGI (SK-OV-3 ovarian): 9.17 µM | GI50 (UACC-257 melanoma): 1.7 µM | TGI (UACC-257 melanoma): 3.4 µM | GI50 (MDA-MB-231 breast): 1.57 µM | TGI (MDA-MB-231 breast): 2.96 µM | GI50 (SN12C renal): 1.52 µM | TGI (SN12C renal): 2.9 µM | GI50 (SK-MEL-5 melanoma): 1.47 µM | TGI (SK-MEL-5 melanoma): 2.8 µM | GI50 (T-47D breast): 1.58 µM | TGI (T-47D breast): 3.43 µM | GI50 (K-562 leukemia): 1.93 µM | TGI (K-562 leukemia): 3.48 µM | GI50 (SW-620 colon): 1.88 µM | TGI (SW-620 colon): 3.36 µM | GI50 (OVCAR-5 ovarian): 2.73 µM | TGI (OVCAR-5 ovarian): 6.27 µM | GI50 (U251 glioblastoma): 1.81 µM | TGI (U251 glioblastoma): 3.37 µM | GI50 (OVCAR-3 ovarian): 1.85 µM | TGI (OVCAR-3 ovarian): 3.27 µM | GI50 (HCT-116 colon): 1.94 µM | TGI (HCT-116 colon): 3.53 µM | GI50 (NCI-H322M lung): 1.91 µM | TGI (NCI-H322M lung): 3.72 µM | GI50 (SF-268 CNS): 1.57 µM | TGI (SF-268 CNS): 2.93 µM | GI50 (COLO 205 colon): 1.82 µM | TGI (COLO 205 colon): 3.54 µM | GI50 (UO-31 renal): 4.23 µM | TGI (UO-31 renal): 14.2 µM | GI50 (LOX IMVI melanoma): 1.98 µM | TGI (LOX IMVI melanoma): 3.42 µM | GI50 (MCF7 breast): 0.0462 µM | TGI (MCF7 breast): 1.04 µM | GI50 (HL-60(TB) leukemia): < 0.01 µM | TGI (HL-60(TB) leukemia): < 0.01 µM | GI50 (HCC-2998 colon): 1.19 µM | TGI (HCC-2998 colon): 2.52 µM | GI50 (SNB-19 CNS): 1.87 µM | TGI (SNB-19 CNS): 3.36 µM | GI50 (HT29 colon): 1.83 µM | TGI (HT29 colon): 3.33 µM | GI50 (A498 renal): 2.26 µM | TGI (A498 renal): 5.43 µM | GI50 (PC-3 prostate): 1.82 µM | TGI (PC-3 prostate): 3.24 µM | GI50 (MDA-MB-468 breast): 0.0109 µM | TGI (MDA-MB-468 breast): 0.054 µM | GI50 (RPMI-8226 leukemia): < 0.01 µM
